{"source": "patent US20140130208A1", "about": "“METHODS AND MEANS TO PRODUCE ABIOTIC STRESS TOLERANT PLANTS” (VIB VZW, priority 2011, published 2014)", "key": {"[1]": {"test_system": "Arabidopsis thaliana third true leaf", "experiment": "Growth (kinematic) analysis of the third leaf after transfer of seedlings to mannitol- or ACC-containing medium", "type": "in vivo", "settings": "for reduction in leaf area: 72 h after transfer to mannitol (12 DAS)", "procedure": "Arabidopsis seedlings were germinated and grown on nylon meshes overlaying control medium until 9 days after stratification (DAS), when the third true leaf is fully proliferating (Skirycz et al., 2010), and subsequently transferred to control or mannitol-containing medium (FIGS. 1A to 10). Kinematic analysis was performed, whereby leaves were harvested daily throughout development of leaf 3 (9-20 DAS) and based on drawings of the abaxial epidermis cell number, cell area, number of guard cells and cell division and cell expansion rates were calculated (De Veylder et al., 2001). […] Leaf and plant morphology were not altered by mannitol (FIG. 2C). Cell expansion was also affected by stress and the reduced final leaf area was a combination of fewer and smaller cells (FIG. 2D). The stomatal index, which represents the number of stomata as a fraction of the total number of cells, was reduced as well (FIG. 2E). To learn more about the mechanisms underlying the rapid reduction of cell division upon stress onset, we harvested leaf samples daily after transfer. As a measure of cellular differentiation, the ploidy distribution was examined by flow cytometry. […] In stressed leaves, 4C nuclei started to accumulate approximately one day earlier than in controls at the expense of 2C nuclei (FIG. 3A). Analogously, the number of 8C nuclei increased sharply at 14 DAS in stressed leaves, but only at 15 DAS in control samples (FIG. 3A). Again, transfer itself had no effect on ploidy levels (not shown). […] This observation was further investigated with a CYCB1;1:Dbox-GUS reporter line. Staining for CYCB1;1:Dbox-GUS activity visualizes cells at the G2-to-M transition, reflecting mitotic activity (Colón-Carmona et al., 1999). The most apparent differences were observed 48 h after transfer. […] While the relative size of the cell proliferation zone was similar in mannitol-treated leaves, the remaining proliferating cells were found in a dispersed pattern throughout this zone. […] Within a few days after transfer, division rates adapted to the new conditions and compensation effects were observed.\nSeedlings of Arabidopsis thaliana (L.) Heyhn. ecotype Columbia-0 (Col-0) were grown in vitro in half-strength Murashige and Skoog medium (Murashige and Skoog, 1962), supplemented with 1% sucrose under a 16-h day (110 μmol m^−2 s^−1) and 8-h night regime. Plates were overlaid with nylon mesh (Prosep, Zaventem, Belgium) of 20 μm pore size to avoid that roots grew into the medium. Depending on the experiment, 32 or 64 seeds were equally distributed on a 150-mm diameter plate. Mutant plants were grown together with their wild-type controls on the same plate.\nAt 9 DAS, when the third leaf is fully proliferating, seedlings were transferred to plates containing control medium or medium supplemented with 25 mM mannitol (Sigma-Aldrich) or 5 μM ACC (Sigma-Aldrich) by gently lifting the nylon mesh with forceps. For the CDKA activity assay the transfer was done at 11 DAS; at this stage, the third leaf is still dividing and can be quickly harvested without the need for RNAlater solution (see below) that would inhibit CDKA activity. All transfers were performed 2-3 h into the day.\nGrowth analysis was performed on the third true leaf harvested at different time points after transfer. After clearing with 70% ethanol, leaves were mounted in lactic acid on microscopic slides. For each experiment, 8-12 leaves were photographed with a binocular, and epidermal cells (40-300) were drawn for four representative leaves with a DMLB microscope (Leica) fitted with a drawing tubus and a differential interference contrast objective. Photographs of leaves and drawings were used to measure leaf and cell area, respectively, with ImageJ v1.41o (NIH; http://rsb.info.nih.gov/ij/), from which the cell numbers were calculated. The stomatal index was defined as the percentage of stomata per all cells. […]"}, "[2]": {"test_system": "Arabidopsis thaliana third true leaf", "experiment": "Ploidy analysis of leaf 3 by flow cytometry (endoreduplication onset)", "type": "in vivo", "settings": "transfer at 9 DAS to 25 mM mannitol or 5 μM ACC", "procedure": "Arabidopsis seedlings were germinated and grown on nylon meshes overlaying control medium until 9 days after stratification (DAS), when the third true leaf is fully proliferating (Skirycz et al., 2010), and subsequently transferred to control or mannitol-containing medium (FIGS. 1A to 10). Kinematic analysis was performed, whereby leaves were harvested daily throughout development of leaf 3 (9-20 DAS) and based on drawings of the abaxial epidermis cell number, cell area, number of guard cells and cell division and cell expansion rates were calculated (De Veylder et al., 2001). […] Leaf and plant morphology were not altered by mannitol (FIG. 2C). Cell expansion was also affected by stress and the reduced final leaf area was a combination of fewer and smaller cells (FIG. 2D). The stomatal index, which represents the number of stomata as a fraction of the total number of cells, was reduced as well (FIG. 2E). To learn more about the mechanisms underlying the rapid reduction of cell division upon stress onset, we harvested leaf samples daily after transfer. […]\nFor flow cytometry analysis, nuclei were extracted by chopping 4-32 leaves with a razor blade in 1 ml of 45 mM MgCl2, 30 mM sodium citrate, 20 mM 3-(N-morpholino)propanesulfonic acid, pH 7, and 1% Triton X-100 (Galbraith et al., 1983). […] The nuclei were analyzed with a CyFlow flow cytometer with the FloMax Software (Partec)."}, "[3]": {"settings": "transfer at 9 DAS to 25 mM mannitol or 5 μM ACC, leaf 3"}}}
{"smiles": "OC[C@@H](O)[C@@H](O)[C@H](O)[C@H](O)CO", "note": "[mannitol]", "values": [{"measurement": "leaf and plant morphology", "setting": "[1]; 25 mM mannitol", "value": "not altered"}, {"measurement": "reduction of leaf area", "setting": "[1]; 25 mM mannitol in growth medium", "value": "approximately 50%"}, {"measurement": "reduction in leaf area", "setting": "[1]; ein5.1 mutant", "value": "~20", "unit": "%"}, {"measurement": "reduction in leaf area", "setting": "[1]; etr1.3 mutant", "value": "~30", "unit": "%"}, {"measurement": "cell proliferation rates", "setting": "[1]; [3]", "value": "reduced proliferation rates"}, {"measurement": "stomatal index", "setting": "[1]; [3]", "value": "reduced"}, {"measurement": "reduction in leaf area", "setting": "[1]; wild type", "value": "~45", "unit": "%"}, {"measurement": "endoreduplication onset", "setting": "[2]", "value": "faster onset of endoreduplication"}]}
